These results are taken from ChEMBL document CHEMBL5046276 (J Med Chem, 2022).

In series [1] the test system is Plasmodium falciparum. As to the kind of experiment: Antimalarial activity against asexual blood stage wild-type Plasmodium falciparum 3D7 assessed as parasite growth inhibition incubated for 72 hrs by SYBR Green I staining based fluorescence analysis. The settings on record: 3D7, 72 h. The series is classed as functional, organism-based.
For series [2], the system named is Plasmodium falciparum. Put plainly: Antimalarial activity against asexual blood stage chloroquine-resistant Plasmodium falciparum Dd2 assessed as parasite growth inhibition incubated for 72 hrs by SYBR Green I staining based fluorescence analysis. The settings on record: Dd2, 72 h. The series is classed as functional, organism-based.
Series [3] can be described thus: Cytotoxicity against human HepG2 cells incubated for 72 hrs by CCK-8 assay.
Series [4] is described as follows: Cytotoxicity against HEK293T cells incubated for 72 hrs by CCK-8 assay. The settings on record: human.
A short description of series [5]: Selectivity index, ratio of IC50 for cytotoxicity against human HepG2 cells to IC50 for antimalarial activity against asexual blood stage wild-type Plasmodium falciparum 3D7. The series is classed as toxicity, cell-based. The settings on record: read-out: Ratio IC50.
A short description of series [6]: Selectivity index, ratio of IC50 for cytotoxicity against HEK293T cells to IC50 for antimalarial activity against asexual blood stage wild-type Plasmodium falciparum 3D7. The series is classed as toxicity, cell-based. To be noted: human, read-out: Ratio IC50.

SMILES strings stand for the structures. pIC50: −log10 of the molar value.

By pIC50 is commonly meant the IC50 on a negative log10 scale, so that one unit is a factor of ten. As a reminder, the IC50 is the concentration that inhibits the measured activity by half. A high value points to weaker potency.

Take `O=C(NO)c1cnc(N2CCC3(CN(Cc4ccsc4)C3)C2)nc1`: the pIC50 is 8.20 in the series on Plasmodium falciparum [1] and 8.41 in the series on Plasmodium falciparum [2]. The IC50 at 72 h in series [3] was found to be 2460 nM; in series [4] it was 4.62 µM. In addition, the selectivity ratio in series [5] came out at 394; in series [6] it was 739.
For `O=C(NO)c1cnc(N2CCC3(CN(Cc4ccco4)C3)C2)nc1`, the pIC50 with Plasmodium falciparum [1] is 7.12; in the series with Plasmodium falciparum [2] it was 6.93. The IC50 at 72 h came to 10900 nM in series [3] and 20 µM in series [4]. For the same molecule, the selectivity ratio is 144 in series [5] and > 263 in series [6].
Consider `COc1ccc2c(CN3CC4(CCN(c5ncc(C(=O)NO)cn5)C4)C3)cn(C)c2c1`, for which the pIC50 with Plasmodium falciparum [1] was 8.22; in the series with Plasmodium falciparum [2] it was 8.29. In addition, the results for the IC50 at 72 h in series [3] and in series [4] were 630 nM and 0.7 µM, respectively. Also, the selectivity ratio in series [5] came out at 106; in series [6] it was 117.
For `O=C(NO)c1cnc(N2CCC3(CN(Cc4cccnc4)C3)C2)nc1`, the pIC50 with Plasmodium falciparum [1] was 7.33; in the series on Plasmodium falciparum [2], 5.65. The IC50 at 72 h was 11400 nM in series [3] and > 20 µM in series [4]. In addition, the selectivity ratio in series [5] was 243; in series [6], > 426.
Consider `Cn1cc(CN2CC3(CCN(c4ncc(C(=O)NO)cn4)C3)C2)c2cccnc21`, for which the values for the pIC50 in the series with Plasmodium falciparum [1] and in the series on Plasmodium falciparum [2] were 7.98 and 8.11, respectively. Besides, the IC50 at 72 h is > 12200 nM in series [3] and 6.17 µM in series [4]. The selectivity ratio in series [5] is > 1170; in series [6], 594.
Consider `O=C(NO)c1cnc(N2CCC3(CN(Cc4cc5ccccc5o4)C3)C2)nc1`, for which the values for the pIC50 with Plasmodium falciparum [1] and in the series with Plasmodium falciparum [2] were 8.15 and 8.29, respectively. In addition, the results for the IC50 at 72 h in series [3] and in series [4] were 3890 nM and 5.62 µM, respectively. In addition, the selectivity ratio was 543 in series [5] and 785 in series [6].
As to `O=C(NO)c1cnc(N2CCC3(CN(Cc4cc5ccccc5s4)C3)C2)nc1`, the pIC50 in the series with Plasmodium falciparum [1] is 8.24; in the series on Plasmodium falciparum [2], 8.07. Besides, the values for the IC50 at 72 h in series [3] and in series [4] were 3610 nM and 4.59 µM, respectively. The selectivity ratio was 625 in series [5] and 794 in series [6].
Consider `O=C(NO)c1cnc(N2CCC3(CN(Cc4ccoc4)C3)C2)nc1`, for which the figures for the pIC50 with Plasmodium falciparum [1] and with Plasmodium falciparum [2] were 7.42 and 7.40, respectively. Further, the IC50 at 72 h in series [3] stood at 6030 nM; in series [4], 16.2 µM. Further, the values for the selectivity ratio in series [5] and in series [6] were 160 and 431, respectively.
On to `O=C(NO)c1cnc(N2CCC3(CN(Cc4csc5ccccc45)C3)C2)nc1`, for which the pIC50 in the series on Plasmodium falciparum [1] was 8.00; in the series on Plasmodium falciparum [2], 8.10. For the same molecule, the IC50 at 72 h in series [3] was found to be 490 nM; in series [4] it was 2.58 µM. The selectivity ratio amounted to 49 in series [5] and 257 in series [6].
On to `O=C(NO)c1cnc(N2CCC3(CN(CC4CCCCC4)C3)C2)nc1`, for which the pIC50 was 7.65 in the series with Plasmodium falciparum [1] and 7.72 in the series on Plasmodium falciparum [2]. For the same molecule, the IC50 at 72 h in series [3] amounted to 1030 nM; in series [4] it was 3.56 µM. For the same molecule, the figures for the selectivity ratio in series [5] and in series [6] were 46 and 160, respectively.
In the case of `Cn1nc(CN2CC3(CCN(c4ncc(C(=O)NO)cn4)C3)C2)c2ccccc21`, the values for the pIC50 with Plasmodium falciparum [1] and with Plasmodium falciparum [2] were 8.01 and 7.90, respectively. The IC50 at 72 h came to 2130 nM in series [3] and 7.31 µM in series [4]. Besides, the selectivity ratio turned out to be 218 in series [5] and 767 in series [6].
Regarding `O=C(NO)c1cnc(N2CCC3(CN(Cc4cccs4)C3)C2)nc1`, the figures for the pIC50 with Plasmodium falciparum [1] and with Plasmodium falciparum [2] were 7.82 and 7.23, respectively. The figures for the IC50 at 72 h in series [3] and in series [4] were 2510 nM and > 4.93 µM, respectively. The selectivity ratio was 165 in series [5] and > 324 in series [6].
`O=C(NO)c1cnc(N2CCC3(CN(Cc4cnc5ccccn45)C3)C2)nc1`: the pIC50 in the series on Plasmodium falciparum [1] was 7.92; in the series with Plasmodium falciparum [2] it was 8.07. For the same molecule, the IC50 at 72 h in series [3] turned out to be 20000 nM; in series [4], 2.37 µM. Further, the selectivity ratio in series [5] is > 1640; in series [6], 195.
As for `O=C(NO)c1cnc(N2CCC3(CN(Cc4cccc5ccncc45)C3)C2)nc1`, the pIC50 with Plasmodium falciparum [1] is 8.21; in the series with Plasmodium falciparum [2] it was 8.23. In addition, the results for the concentration for half-maximal inhibition (IC50) at 72 h in series [3] and in series [4] were 1840 nM and 0.93 µM, respectively. In addition, the selectivity ratio is 300 in series [5] and 152 in series [6].
Regarding `O=C(NO)c1cnc(N2CCC3(CN(Cc4ccccn4)C3)C2)nc1`, the pIC50 was 7.35 with Plasmodium falciparum [1] and 7.51 with Plasmodium falciparum [2]. In addition, the IC50 at 72 h in series [3] is 8370 nM; in series [4], > 20 µM. Further, the selectivity ratio was 188 in series [5] and > 449 in series [6].
For the molecule `Cc1ccc2c(CN3CC4(CCN(c5ncc(C(=O)NO)cn5)C4)C3)cn(C)c2c1`, the pIC50 with Plasmodium falciparum [1] is 8.35; in the series with Plasmodium falciparum [2], 8.49. Moreover, the IC50 at 72 h is 500 nM in series [3] and 1.1 µM in series [4]. The selectivity ratio worked out at 112 in series [5] and 247 in series [6].
`Cn1cc(CN2CC3(CCN(c4ncc(C(=O)NO)cn4)C3)C2)c2ccncc21`: the pIC50 with Plasmodium falciparum [1] was 8.34; in the series with Plasmodium falciparum [2], 8.02. Also, the figures for the IC50 at 72 h in series [3] and in series [4] were > 20000 nM and > 20 µM, respectively. Further, the selectivity ratio in series [5] and in series [6] was > 1370 each time.
For `O=C(NO)c1cnc(N2CCC3(CN(Cc4cncc5ccccc45)C3)C2)nc1`, the pIC50 is 8.06 in the series on Plasmodium falciparum [1] and 7.91 with Plasmodium falciparum [2]. For the same molecule, the IC50 at 72 h in series [3] worked out at 2230 nM; in series [4], 8.06 µM. Further, the selectivity ratio came to 258 in series [5] and 934 in series [6].
With `O=C(NO)c1cnc(N2CCC3(CN(CC4CCCC4)C3)C2)nc1`, the pIC50 in the series on Plasmodium falciparum [2] was 7.72. The IC50 at 72 h in series [3] amounted to 1060 nM. Also, in series [5], the selectivity ratio amounted to 64.
As for `O=C(NO)c1cnc(N2CCC3(CN(Cc4cccc5cnccc45)C3)C2)nc1`, the values for the pIC50 in the series on Plasmodium falciparum [1] and with Plasmodium falciparum [2] were 7.78 and 7.92, respectively. Moreover, the figures for the half-maximal inhibitory concentration (IC50) at 72 h in series [3] and in series [4] were 2210 nM and 1.61 µM, respectively. In addition, the selectivity ratio was 133 in series [5] and 97 in series [6].
Take `Cn1cc(CN2CC3(CCN(c4ncc(C(=O)NO)cn4)C3)C2)c2cnccc21`: the pIC50 with Plasmodium falciparum [1] was 7.66; with Plasmodium falciparum [2], 7.85. Also, the IC50 at 72 h in series [3] was > 20000 nM; in series [4], > 20 µM. In addition, the selectivity ratio in series [5] and in series [6] was > 908 in each case.
As to `O=C(NO)c1cnc(N2CCC3(CN(Cc4ccc5ccccc5c4)C3)C2)nc1`, the pIC50 with Plasmodium falciparum [1] is 8.00; in the series with Plasmodium falciparum [2], 7.88. In addition, the IC50 at 72 h turned out to be 2130 nM in series [3] and 4.37 µM in series [4]. Besides, the selectivity ratio amounted to 215 in series [5] and 442 in series [6].
`O=C(NO)c1cnc(N2CCC3(CN(Cc4ccc(-c5ccccc5)cc4)C3)C2)nc1`: the figures for the pIC50 in the series with Plasmodium falciparum [1] and in the series on Plasmodium falciparum [2] were 7.64 and 7.36, respectively. The IC50 at 72 h came out at 3140 nM in series [3] and 3.99 µM in series [4]. The values for the selectivity ratio in series [5] and in series [6] were 137 and 174, respectively.
In the case of `O=C(NO)c1cnc(N2CCC3(CN(Cc4c5ccccc5cc5ccccc45)C3)C2)nc1`, the values for the pIC50 in the series on Plasmodium falciparum [1] and with Plasmodium falciparum [2] were 8.03 and 8.25, respectively. The IC50 at 72 h in series [3] is 31000 nM; in series [4] it was 0.46 µM. The selectivity ratio in series [6] was determined as 49.
Regarding `O=C(NO)c1cnc(N2CCC3(CN(Cc4ccc5ncccc5c4)C3)C2)nc1`, the results for the pIC50 in the series with Plasmodium falciparum [1] and in the series on Plasmodium falciparum [2] were 7.77 and 7.93, respectively. In addition, the 50% inhibitory concentration (IC50) at 72 h amounted to 1540 nM in series [3] and 1.74 µM in series [4]. In addition, the selectivity ratio in series [5] is 90; in series [6], 102.
Turning to `Cn1cc(CN2CC3(CCN(c4ncc(C(=O)NO)cn4)C3)C2)c2ccccc21`, the pIC50 in the series on Plasmodium falciparum [1] and in the series with Plasmodium falciparum [2] was 8.34 throughout. In addition, the IC50 at 72 h was found to be 720 nM in series [3] and 1.52 µM in series [4]. Also, the selectivity ratio in series [5] was found to be 157; in series [6] it was 331.
Regarding `O=C(NO)c1cnc(N2CCC3(CN(Cc4cccc5cccnc45)C3)C2)nc1`, the pIC50 with Plasmodium falciparum [1] is 7.88; in the series on Plasmodium falciparum [2], 7.79. The IC50 at 72 h worked out at 2660 nM in series [3] and 5.58 µM in series [4]. For the same molecule, the selectivity ratio in series [5] amounted to 202; in series [6], 423.
As for `O=C(NO)c1cnc(N2CCC3(CN(Cc4ccncc4)C3)C2)nc1`, the figures for the pIC50 in the series on Plasmodium falciparum [1] and in the series with Plasmodium falciparum [2] were 6.86 and 5.07, respectively. Moreover, the IC50 at 72 h in series [3] was 20000 nM; in series [4], > 20 µM. In addition, the selectivity ratio in series [5] and in series [6] was > 146 each time.
As to `O=C(NO)c1cnc(N2CCC3(CN(Cc4cccc5ccccc45)C3)C2)nc1`, the negative-log IC50 (pIC50) is 8.35 in the series on Plasmodium falciparum [1] and 8.36 in the series with Plasmodium falciparum [2]. The IC50 at 72 h in series [3] was > 770 nM; in series [4], 2.7 µM. Besides, the selectivity ratio was > 173 in series [5] and 605 in series [6].
Take `O=C(NO)c1cnc(N2CCC3(CN(Cc4ccccc4)C3)C2)nc1`: the pIC50 with Plasmodium falciparum [1] was 7.59; in the series with Plasmodium falciparum [2], 7.17. In addition, the IC50 at 72 h in series [3] was determined as 420 nM; in series [4], 1.98 µM. Moreover, the selectivity ratio in series [5] came to 16; in series [6], 78.
